Results reported in PMC9181188 (International Journal of Molecular Sciences, 2022).
Values after ≈ are worked out from the molar mass of the structure shown. Where two headings read alike, the source gives them in different places.

How the values were obtained:
SW480 cells = assay: MTT assay, SW480; type: cell-based, human; settings: for IC50: Homo sapiens, SW480, 72 h, human primary colon cancer, 72 h, MTT, mean ± SD; for SI SW480: SI = IC50 for normal cell line (HaCaT)/IC50 cancer cell line
SW620 cells = assay: MTT assay, SW620; type: cell-based, human; settings: for IC50: Homo sapiens, SW-620, 72 h, human metastatic colon cancer, 72 h, MTT, mean ± SD; for SI SW620: SI = IC50 for normal cell line (HaCaT)/IC50 cancer cell line
PC3 cells = assay: MTT assay, PC3; type: cell-based, human; settings: for IC50: human metastatic prostate cancer, 72 h, MTT, mean ± SD; for SI PC3: SI = IC50 for normal cell line (HaCaT)/IC50 cancer cell line
HaCaT cells = assay: MTT assay, HaCaT normal cells; type: cell-based; settings: human immortal keratinocyte cell line, 72 h, mean ± SD
S. aureus NCTC 4163 = assay: MIC, twofold microdilution, standard strain; type: cell-based; settings: Staphylococcus aureus, NCTC4163; 18 h of treatment; read-out: MIC S. aureus NCTC 4163
S. aureus ATCC 25923 = assay: MIC, twofold microdilution, standard strain; type: cell-based; settings: Staphylococcus aureus, ATCC25923; 18 h of treatment; read-out: MIC S. aureus ATCC 25923
S. aureus ATCC 6538 = assay: MIC, twofold microdilution, standard strain; type: cell-based; settings: Staphylococcus aureus, ATCC6538; 18 h of treatment; read-out: MIC S. aureus ATCC 6538
S. aureus ATCC 29213 = assay: MIC, twofold microdilution, standard strain; type: cell-based; settings: Staphylococcus aureus, ATCC29213; 18 h of treatment; read-out: MIC S. aureus ATCC 29213
[1] = test system: S. epidermidis ATCC 12228; assay: MIC, twofold microdilution, standard strain; type: cell-based; settings: Staphylococcus epidermidis, ATCC12228; 18 h of treatment; read-out: MIC S. epidermidis ATCC 12228
[2] = test system: S. epidermidis ATCC 35984; assay: MIC, twofold microdilution, standard strain; type: cell-based; settings: Staphylococcus epidermidis, ATCC35984; 18 h of treatment; read-out: MIC S. epidermidis ATCC 35984
E. coli ATCC 25922 = assay: MIC, twofold microdilution, standard strain; type: cell-based, Escherichia coli; settings: 18 h of treatment; for MIC: Escherichia coli, ATCC25922, read-out: MIC E. coli ATCC 25922
P. aeruginosa ATCC 27853 = assay: MIC, twofold microdilution, standard strain; type: cell-based; settings: Pseudomonas aeruginosa, ATCC27853; 18 h of treatment; read-out: MIC P. aeruginosa ATCC 27853
[3] = test system: S. epidermidis KR 4047 825/19; assay: MIC, clinical S. epidermidis strain; type: cell-based; settings: Staphylococcus epidermidis, KR4047825/19, quinolone-resistant, 18 h of treatment
[4] = test system: S. epidermidis KR 4243 829/19; assay: MIC, clinical S. epidermidis strain; type: cell-based; settings: Staphylococcus epidermidis, KR4243829/19, quinolone-susceptible, 18 h of treatment
[5] = test system: S. epidermidis KR 4313 834/19; assay: MIC, clinical S. epidermidis strain; type: cell-based; settings: Staphylococcus epidermidis, KR4313834/19, quinolone-susceptible, 18 h of treatment
[6] = test system: S. epidermidis KR 4358/2 840/19; assay: MIC, clinical S. epidermidis strain; type: cell-based; settings: Staphylococcus epidermidis, KR4358/2840/19; clinical S. epidermidis, quinolone-susceptible, 18 h of treatment; read-out: MIC KR 4358/2 840/19
[7] = test system: S. epidermidis T 5253 845/19; assay: MIC, clinical S. epidermidis strain; type: cell-based; settings: Staphylococcus epidermidis, T5253845/19, quinolone-resistant, 18 h of treatment
[8] = test system: S. epidermidis T 5399 848/19; assay: MIC, clinical S. epidermidis strain; type: cell-based; settings: Staphylococcus epidermidis, T5399848/19, quinolone-susceptible, 18 h of treatment
[9] = test system: S. epidermidis T 5501 851/19; assay: MIC, clinical S. epidermidis strain; type: cell-based; settings: Staphylococcus epidermidis, T5501851/19, read-out: MIC T 5501 851/19, quinolone-susceptible, 18 h of treatment
M. tuberculosis H37Rv = assay: MABA (microplate Alamar blue assay) MIC; type: cell-based; settings: Mycobacterium tuberculosis, 336 h, 2 weeks of treatment, read-out: MIC M. tuberculosis H37Rv
[10] = test system: M. tuberculosis Spec. 192 (Sensitive to Tuberculostatics); assay: MABA (microplate Alamar blue assay) MIC; type: cell-based; settings: Mycobacterium tuberculosis, 336 h; 2 weeks of treatment; read-out: MIC M. tuberculosis Spec. 192 (Sensitive to Tuberculostatics)
[11] = target: T1, S. aureus topoisomerase IV (Staphylococcus aureus, UniProt P0C1S7+P0C1U9); assay: S. aureus topoisomerase IV decatenation assay; type: biochemical
T1 construct: purchased Inspiralis
T1 sequence (P0C1U9 whole entry): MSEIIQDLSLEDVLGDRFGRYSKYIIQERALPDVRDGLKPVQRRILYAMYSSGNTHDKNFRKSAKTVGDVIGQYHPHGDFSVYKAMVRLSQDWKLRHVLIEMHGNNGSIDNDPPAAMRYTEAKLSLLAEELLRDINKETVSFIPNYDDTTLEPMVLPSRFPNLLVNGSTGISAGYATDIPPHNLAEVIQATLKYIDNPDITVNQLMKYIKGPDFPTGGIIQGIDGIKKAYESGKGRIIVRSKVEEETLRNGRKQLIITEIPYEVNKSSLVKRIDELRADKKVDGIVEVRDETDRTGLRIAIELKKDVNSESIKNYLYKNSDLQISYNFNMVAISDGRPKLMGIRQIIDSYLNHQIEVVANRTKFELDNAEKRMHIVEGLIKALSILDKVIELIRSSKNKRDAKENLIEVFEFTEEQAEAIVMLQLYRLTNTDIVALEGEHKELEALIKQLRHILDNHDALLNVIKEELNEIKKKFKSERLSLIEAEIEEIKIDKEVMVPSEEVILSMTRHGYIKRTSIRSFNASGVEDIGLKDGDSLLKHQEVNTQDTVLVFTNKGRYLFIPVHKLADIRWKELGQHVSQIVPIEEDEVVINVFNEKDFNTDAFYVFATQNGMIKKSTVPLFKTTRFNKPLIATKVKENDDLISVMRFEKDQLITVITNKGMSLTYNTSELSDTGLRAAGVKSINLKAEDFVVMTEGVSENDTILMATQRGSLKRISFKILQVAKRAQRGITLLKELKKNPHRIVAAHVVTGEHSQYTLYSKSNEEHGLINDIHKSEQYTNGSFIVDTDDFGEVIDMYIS
T1 sequence (P0C1S7 whole entry): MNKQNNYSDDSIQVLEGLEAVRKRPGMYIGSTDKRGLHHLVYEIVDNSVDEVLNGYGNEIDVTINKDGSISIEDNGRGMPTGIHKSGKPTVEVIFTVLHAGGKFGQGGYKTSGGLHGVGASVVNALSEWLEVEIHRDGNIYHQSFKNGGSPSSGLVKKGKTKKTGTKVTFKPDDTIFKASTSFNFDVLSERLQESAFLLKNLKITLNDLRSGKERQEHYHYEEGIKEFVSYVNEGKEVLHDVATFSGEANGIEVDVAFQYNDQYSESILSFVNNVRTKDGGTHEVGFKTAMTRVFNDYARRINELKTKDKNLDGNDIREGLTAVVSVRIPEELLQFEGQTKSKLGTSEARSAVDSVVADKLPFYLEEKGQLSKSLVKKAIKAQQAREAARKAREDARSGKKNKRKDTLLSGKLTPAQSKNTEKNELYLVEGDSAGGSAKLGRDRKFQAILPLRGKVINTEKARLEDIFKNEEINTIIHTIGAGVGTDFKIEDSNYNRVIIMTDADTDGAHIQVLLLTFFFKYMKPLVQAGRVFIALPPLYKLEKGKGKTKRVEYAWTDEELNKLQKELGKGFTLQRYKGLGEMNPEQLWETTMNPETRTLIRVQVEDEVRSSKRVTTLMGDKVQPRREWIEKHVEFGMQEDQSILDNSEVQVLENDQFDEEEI
Method: The assay was performed using S. aureus topoisomerase IV […] kit (Inspiralis). Kinetoplast DNA (kDNA) was the substrate for topoisomerase IV.

[12] = test system: SW480, SW620, and PC3 cancer cell lines; assay: MTT assay, cancer cell lines as a group; type: cell-based, human; settings: 72 h, all three cancer cell lines (SW480, SW620, PC3), read-out: IC50 against all tested cancer cell lines
[13] = test system: standard staphylococci (S. aureus, S. epidermidis); assay: MIC, standard Gram-positive strains as a group; type: cell-based; settings: Staphylococcus aureus; range over standard Gram-positive strains; read-out: MIC against standard staphylococci
[14] = test system: quinolone-susceptible clinical coagulase-negative staphylococci; assay: MIC, quinolone-susceptible clinical isolates as a group; type: cell-based; settings: Staphylococcus epidermidis; five quinolone-susceptible isolates; read-out: MIC against quinolone-susceptible clinical isolates
S. aureus DNA gyrase = S. aureus DNA gyrase (Staphylococcus aureus, UniProt P0A0K8+P20831); assay: biochemical
Chain of S. aureus DNA gyrase (P20831 whole entry): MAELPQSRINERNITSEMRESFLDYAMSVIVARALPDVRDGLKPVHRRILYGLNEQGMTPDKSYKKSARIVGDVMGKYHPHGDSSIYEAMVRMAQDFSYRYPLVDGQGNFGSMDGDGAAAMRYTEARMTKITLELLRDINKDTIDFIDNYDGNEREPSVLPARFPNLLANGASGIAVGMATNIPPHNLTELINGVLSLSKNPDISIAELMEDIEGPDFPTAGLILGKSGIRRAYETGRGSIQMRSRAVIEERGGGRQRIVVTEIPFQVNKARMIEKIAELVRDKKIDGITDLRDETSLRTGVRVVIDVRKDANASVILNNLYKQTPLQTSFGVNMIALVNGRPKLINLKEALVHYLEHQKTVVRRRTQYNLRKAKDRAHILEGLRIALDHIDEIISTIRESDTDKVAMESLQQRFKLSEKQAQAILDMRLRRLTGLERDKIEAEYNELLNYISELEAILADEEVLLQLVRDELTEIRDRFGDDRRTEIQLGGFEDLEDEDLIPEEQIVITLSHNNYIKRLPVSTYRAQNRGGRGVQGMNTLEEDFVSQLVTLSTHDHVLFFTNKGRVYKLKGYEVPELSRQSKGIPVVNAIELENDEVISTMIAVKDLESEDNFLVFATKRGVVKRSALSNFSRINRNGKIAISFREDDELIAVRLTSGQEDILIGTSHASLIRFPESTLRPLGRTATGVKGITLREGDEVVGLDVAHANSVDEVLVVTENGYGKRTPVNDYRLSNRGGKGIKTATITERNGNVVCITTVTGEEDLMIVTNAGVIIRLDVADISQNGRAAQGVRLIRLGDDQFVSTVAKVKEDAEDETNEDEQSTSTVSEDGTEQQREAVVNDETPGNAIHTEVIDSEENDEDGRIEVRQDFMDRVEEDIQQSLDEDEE
Chain of S. aureus DNA gyrase (P0A0K8 whole entry): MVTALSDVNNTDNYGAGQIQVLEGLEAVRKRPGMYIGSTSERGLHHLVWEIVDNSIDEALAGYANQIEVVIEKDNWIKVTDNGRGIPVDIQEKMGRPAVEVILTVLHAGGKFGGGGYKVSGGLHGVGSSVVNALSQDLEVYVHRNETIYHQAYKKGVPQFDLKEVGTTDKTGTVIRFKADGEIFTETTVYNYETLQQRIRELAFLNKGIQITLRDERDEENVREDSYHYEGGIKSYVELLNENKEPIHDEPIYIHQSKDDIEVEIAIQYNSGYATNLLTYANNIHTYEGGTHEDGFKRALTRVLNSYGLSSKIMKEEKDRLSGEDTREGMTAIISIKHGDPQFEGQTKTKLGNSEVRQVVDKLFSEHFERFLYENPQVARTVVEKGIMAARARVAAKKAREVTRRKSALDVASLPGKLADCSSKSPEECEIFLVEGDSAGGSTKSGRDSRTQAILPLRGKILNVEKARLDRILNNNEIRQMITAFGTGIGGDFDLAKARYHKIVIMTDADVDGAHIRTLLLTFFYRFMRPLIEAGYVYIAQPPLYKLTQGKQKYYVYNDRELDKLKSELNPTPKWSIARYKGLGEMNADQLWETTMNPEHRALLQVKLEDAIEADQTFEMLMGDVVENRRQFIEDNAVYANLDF
Method: The assay was performed using S. aureus DNA Gyrase Supercoiling kit (Inspiralis). […] Samples were vortexed, centrifuged, and 20 µL of the aqueous phase of each sample was loaded onto a 1% agarose gel and left for 30 min prior to electrophoresis to allow diffusion of salt. Electrophoresis was conducted in TAE buffer for 3 h at 50 V. Gels were stained with ethidium bromide and visualized under UV light in a transilluminator (ChemiDoc MP, Bio Rad, Warsaw, Poland).

SMILES	IC50 (SW480 cells)	SI SW480 (SW480 cells)	IC50 (SW620 cells)	SI SW620 (SW620 cells)	IC50 (PC3 cells; Homo sapiens, PC-3, 72 h)	SI PC3 (PC3 cells)	IC50 (HaCaT cells)	MIC (S. aureus NCTC 4163)	MIC (S. aureus ATCC 25923)	MIC (S. aureus ATCC 6538)	MIC (S. aureus ATCC 29213)	MIC [1]	MIC [2]	MIC (E. coli ATCC 25922)	MIC (P. aeruginosa ATCC 27853)	MIC [3]	MIC [4]	MIC [5]	MIC [6]	MIC [7]	also measured
CC/C=C\C/C=C\C/C=C\C/C=C\C/C=C\C/C=C\CCC(=O)N1CCCC2CN(c3c(F)cc4c(=O)c(C(=O)O)cn(C5CC5)c4c3OC)CC21 (stereo not shown) [Compound 8m, 1-Cyclopropyl-7-{1-(4Z,7Z,10Z,13Z,16Z,19Z)-docosa-4,7,10,13,16,19-hexaenoyl-octahydro-pyrrolo[3,4-b]pyridin-6-yl}-6-fluoro-8-methoxy-4-oxo-1,4-dihydro-quinoline-3-carboxylic acid]	6.2 ± 1.3 µM	13.1	9.4 ± 3.7 µM	8.7	5.6 ± 1.9 µM	14.5	81.4 ± 3.2 µM	2 µg/mL (≈ 2.81 µM)	2 µg/mL (≈ 2.81 µM)	2 µg/mL (≈ 2.81 µM)	4 µg/mL (≈ 5.62 µM)	4 µg/mL (≈ 5.62 µM)	2 µg/mL (≈ 2.81 µM)	2 µg/mL (≈ 2.81 µM)	> 512 µg/mL	512 µg/mL (≈ 719 µM)	4 µg/mL (≈ 5.62 µM)	4 µg/mL (≈ 5.62 µM)	4 µg/mL (≈ 5.62 µM)	512 µg/mL (≈ 719 µM)	MIC E. coli ATCC 25922 (E. coli ATCC 25922): 2 to 16 µg/mL; MIC [8]: 4 µg/mL (≈ 5.62 µM); MIC [9]: 4 µg/mL (≈ 5.62 µM); MIC (M. tuberculosis H37Rv): 8 µg/mL (≈ 11.2 µM); MIC [10]: 4 µg/mL (≈ 5.62 µM); IC50 [11]: > 89.9 µM; IC50 ([12]; Homo sapiens): 5 to 10 µM; IC50 [12]: 5.6 to 10.4 µM; MIC [13]: 2 to 4 µg/mL (≈ 2.81 to 5.62 µM); MIC [14]: 4 µg/mL (≈ 5.62 µM); IC50 (S. aureus DNA gyrase): > 89.9 µM
C=CCCCCC(=O)N1CCCC2CN(c3c(F)cc4c(=O)c(C(=O)O)cn(C5CC5)c4c3OC)CC21 (stereo not shown) [Compound 10m, 1-Cyclopropyl-6-fluoro-7-(1-hept-6-enoyl-octahydro-pyrrolo[3,4-b]pyridin-6-yl)-8-methoxy-4-oxo-1,4-dihydro-quinoline-3-carboxylic acid]	5.8 ± 0.8 µM	15.1	6.2 ± 1.1 µM	14.1	< 5 µM	19.0	87.6 ± 4.5 µM	2 µg/mL (≈ 3.91 µM)	2 µg/mL (≈ 3.91 µM)	2 µg/mL (≈ 3.91 µM)	2 µg/mL (≈ 3.91 µM)	4 µg/mL (≈ 7.82 µM)	2 µg/mL (≈ 3.91 µM)	32 µg/mL (≈ 62.5 µM)	> 512 µg/mL	16 µg/mL (≈ 31.3 µM)	2 µg/mL (≈ 3.91 µM)	2 µg/mL (≈ 3.91 µM)	4 µg/mL (≈ 7.82 µM)	16 µg/mL (≈ 31.3 µM)	IC50 (PC3 cells): 4.6 ± 1.1 µM; MIC [8]: 2 µg/mL (≈ 3.91 µM); MIC [9]: 4 µg/mL (≈ 7.82 µM); MIC (M. tuberculosis H37Rv): 32 µg/mL (≈ 62.5 µM); MIC [10]: 32 µg/mL (≈ 62.5 µM); MIC [13]: 2 to 4 µg/mL (≈ 3.91 to 7.82 µM); MIC [14]: 2 to 8 µg/mL (≈ 3.91 to 15.6 µM)
CCCCC/C=C\C/C=C\C/C=C\C/C=C\CCCC(=O)N1CCCC2CN(c3c(F)cc4c(=O)c(C(=O)O)cn(C5CC5)c4c3OC)CC21 (stereo not shown) [Compound 13m, 1-Cyclopropyl-6-fluoro-7-{1-(5Z,8Z,11Z,14Z)-icosa-5,8,11,14-tetraenoyl-octahydro-pyrrolo[3,4-b]pyridin-6-yl}-8-methoxy-4-oxo-1,4-dihydro-quinoline-3-carboxylic acid]	32.3 ± 4.1 µM	2.9	39.4 ± 4.1 µM	2.4	28.3 ± 2.8 µM	3.3	93.3 ± 2.8 µM	16 µg/mL (≈ 23.3 µM)	16 µg/mL (≈ 23.3 µM)	16 µg/mL (≈ 23.3 µM)	16 µg/mL (≈ 23.3 µM)	16 µg/mL (≈ 23.3 µM)	16 µg/mL (≈ 23.3 µM)	16 µg/mL (≈ 23.3 µM)	> 512 µg/mL	256 µg/mL (≈ 372 µM)	4 µg/mL (≈ 5.81 µM)	8 µg/mL (≈ 11.6 µM)	8 µg/mL (≈ 11.6 µM)	512 µg/mL (≈ 744 µM)	MIC E. coli ATCC 25922 (E. coli ATCC 25922): 2 to 16 µg/mL; MIC [8]: 4 µg/mL (≈ 5.81 µM); MIC [9]: 8 µg/mL (≈ 11.6 µM); MIC (M. tuberculosis H37Rv): 4 µg/mL (≈ 5.81 µM); MIC [10]: 4 µg/mL (≈ 5.81 µM); MIC [13]: 8 to 32 µg/mL (≈ 11.6 to 46.5 µM); MIC [14]: 2 to 8 µg/mL (≈ 2.91 to 11.6 µM)
